For one experiment, the system named is SK-MeI-28 melanoma cells. Briefly: Dosing study versus chemotherapeutic agents, killing of SK-MeI-28 melanoma cells. The class given is cell-based, human. The following applies: SK-MeI-28, mutated p53. Here is the method:
(§1) An initial dosing study comparing z-Leu-Leu-Nle-CHO against three different chemotherapeutic agents (i.e., adriamycin, etoposide, and cisplatin) was performed to evaluate the relative effectiveness of z-Leu-Leu-Nle-CHO in killing melanoma cells. In agreement with a previous report by Soengas, M. S. et al., 2001, Nature 409.207-211, SK-MeI-28 cells, carrying a mutated p53, were relatively resistant to killing by adriamycin, as well as to killing by other chemotherapeutic agents. For SK-MeI-28 melanoma cells, the maximal apoptotic response for adriamycin, etoposide, cisplatin, and z-Leu-Leu-Nle-CHO was 12.0%, 2.6%, 4.0%, and 29.4%, respectively. For RJ002L melanoma cells, the maximal apoptotic response for adriamycin, etoposide, cisplatin, and z-Leu-Leu-Nle-CHO was 23.9%, 12.7%, 3.4%, and 45.7%, respectively.

Another experiment has as its system RJ002L melanoma cells. As to the kind of experiment: Dosing study versus chemotherapeutic agents, killing of RJ002L melanoma cells. The class given is cell-based, human. Here is the method:
as §1

Each structure is given as a SMILES string. Square brackets hold non-standard residues; d marks the D form. Peptide text beside a SMILES is read from it. * marks the point of attachment. Nle = CCCC[C@H](N)C(=O)O; Cbz = O=C(OCc1ccccc1)*

Regarding `CCCC[C@@H](C=O)NC(=O)[C@H](CC(C)C)NC(=O)[C@H](CC(C)C)NC(=O)OCc1ccccc1` [z-Leu-Leu-Nle-CHO, N-benzyloxycarbonyl-leucyl-leucyl-norleucinal] (Cbz-Leu-Leu-[Nle]-aldehyde), the maximal apoptotic response in the experiment on SK-MeI-28 melanoma cells is listed as 29.4%; in the experiment with RJ002L melanoma cells, 45.7%.

Source of the values: patent US20080220416A1, “Compositions for Inhibiting Cell Growth and Inducing Apoptosis in Cancer Cells and Methods of Use Thereof” (THE BOARD OF TRUSTEES OF THE UNIVERSITY OF ILLINOI, priority 2004, published 2008).
